The text below walks through data of US11345957B2, “Methods of treating glioblastoma in a subject informed by exosomal RNA signatures” (Exosome Diagnostics, Inc., priority 2017, dated 2022).

Structures are written as SMILES.

The test system of the assay is patients diagnosed with glioblastoma mutliforme (GBM). Nature of the assay: Response of GBM patients to Dacomitinib treatment. Type of assay: in vivo, human. An excerpt:
Serum samples were collected from 14 patients diagnosed with glioblastoma mutliforme (GBM) before the administration of Dacomitinib (pre-treatment samples) and 1 month after the initiation of Dacomitinib treatment (post-treatment samples). Of the 14 patients, 7 were deemed to be “responders” to the drug and stayed on the drug for more than 6 months.

Consider `COc1cc2ncnc(Nc3ccc(F)c(Cl)c3)c2cc1NC(=O)/C=C/CN1CCCCC1` [Dacomitinib], for which the “time responders stayed on the drug” value (7 responders of 14 GBM patients) is reported as “more than 6 months”. The “patients deemed to be "responders" to the drug” value (of the 14 patients diagnosed with GBM) turned out to be 7.
